# Experimental data taken from patent US20240315994A1, “SMALL MOLECULE MODULATORS OF FERROPTOSIS” (ARPEGGIO BIOSCIENCES, INC., priority 2021, published 2024).
# pIC50: −log10 of the molar value.
# Tested on: HT1080 cells (ATCC, cat #CCL-121)
# Assay: HT1080 CellTiter-Glo 2.0 IC50 assay of working examples
# Assay type: cell-based
# Conditions: HT-1080, 24 hrs, cells plated with and without 1.5 μM ferrostatin-1, table does not say which
# Protocol: Biological evaluation of working examples A1-A47 and B1-B28 was performed in HT1080 cells (ATCC, cat #CCL-121) according to the procedure provided below.
# • 1.1 Cells were harvested from flask into cell culture medium and then the cell number count was determined. • 1.2 The cells were suspended with 1.5 μM ferrostatin-1 and without ferrostatin-1. • 1.3 Cells were plated at a density of 1,500 cells per well in a 384-well black sided clear bottom plate, in 25 μL, using electronic multichannel pipette. • 1.4 Plates were covered with lid and spun for 1 min at 1000 rpm, then allowed to incubate overnight at 37° C. under 5% CO2.
# • 2.1 Compounds were dissolved at 10 mM stock solution and 10 μl of diluted solution was transferred to a 384 LDV-plate (LABCYTE, LP-0200). A 3 fold, 11-point dilution was performed. • 2.2 Cells were treated with compounds by plate reformat Echo software and spun for 1 min at 1000 rpm. Then incubated at 37° C. for 24 hrs in a CO2 incubator.
# • 3.1 The plates were removed from the incubator and allowed to equilibrate to room temperature, at least 30 minutes. • 3.2 CellTiter-Glo® 2.0 Reagent (Promega, G9242) was added (25 μL) to the assay plates and spun for 1 min at 1000 rpm. Then allowed to stand for about 20 minutes before reading luminescence signal on Envision. • 3.3 The IC50 calculations were determined with a nonlinear fit, variable slope (four parameters) log(inhibitor) vs. response model using GraphPad PRISM.
SMILES,pIC50 (Table 7),pIC50 (Table 8)
"COc1cc(OC)cc(N(Cc2ccc(F)c(F)c2Cl)C(=O)CCl)c1 [Compound A43, 2-chloro-N-[(2-chloro-3,4-difluoro-phenyl)methyl]-N-(3,5-dimethoxyphenyl)acetamide]",≥ 8.00,
"COc1cc(OC)cc(N(Cc2cc(C)cc(F)c2)C(=O)CCl)c1 [Compound A44, 2-chloro-N-(3,5-dimethoxyphenyl)-N-[(3-fluoro-5-methyl-phenyl)methyl]acetamide]",7.00 to 8.00,
"COc1cc(OC)cc(N(Cc2cccc3nsnc23)C(=O)CCl)c1 [Compound A45, N-(2,1,3-benzothiadiazol-4-ylmethyl)-2-chloro-N-(3,5-dimethoxyphenyl)acetamide]",7.00 to 8.00,
"COc1cc(N(Cc2ccc(F)cc2)C(=O)CCl)ccn1 [Compound A46, 2-chloro-N-[(4-fluorophenyl)methyl]-N-(2-methoxy-4-pyridyl)acetamide]",6.00 to 7.00,
"Cc1ccc(N(Cc2ccc(F)cc2)C(=O)CCl)cn1 [Compound A47, 2-chloro-N-[(4-fluorophenyl)methyl]-N-(6-methyl-3-pyridyl)acetamide]",< 5.00,
"C#CC(=O)N(CCCOC)c1nc(-c2ccc(Br)cc2)cs1 [Compound B2, N-[4-(4-bromophenyl)thiazol-2-yl]-N-(3-methoxypropyl)prop-2-ynamide]",,5.00 to 6.00
"COCCCN(C(=O)CCl)c1nc(-c2ccc(OC)cc2)cs1 [Compound B3, 2-chloro-N-[4-(4-methoxyphenyl)thiazol-2-yl]-N-(3-methoxypropyl)acetamide]",,5.00 to 6.00
"Cc1cc(C)cc(N(C(=O)CCl)c2nc(-c3ccc(Br)cc3)cs2)c1 [Compound B5, N-[4-(4-bromophenyl)thiazol-2-yl]-2-chloro-N-(3,5-dimethylphenyl)acetamide]",,6.00 to 7.00
"C=CC(=O)N(c1cc(C)cc(C)c1)c1nc(-c2ccc(Br)cc2)cs1 [Compound B7, N-[4-(4-bromophenyl)thiazol-2-yl]-N-(3,5-dimethylphenyl)prop-2-enamide]",,< 5.00
"CC#CC(=O)N(c1cc(C)cc(C)c1)c1nc(-c2ccc(Br)cc2)cs1 [Compound B8, N-[4-(4-bromophenyl)thiazol-2-yl]-N-(3,5-dimethylphenyl)but-2-ynamide]",,< 5.00
"COc1ccc(-c2csc(N(C(=O)CCl)c3cc(C)cc(C)c3)n2)cc1 [Compound B9, 2-chloro-N-(3,5-dimethylphenyl)-N-[4-(4-methoxyphenyl)thiazol-2-yl]acetamide]",,6.00 to 7.00
"Cc1cc(C)cc(N(C(=O)CCl)c2nc(C3CCCCC3)cs2)c1 [Compound B10, 2-chloro-N-(4-cyclohexylthiazol-2-yl)-N-(3,5-dimethylphenyl)acetamide]",,6.00 to 7.00
"Cc1cc(C)cc(N(C(=O)CCl)c2nc(-c3ccccc3)cs2)c1 [Compound B11, 2-chloro-N-(3,5-dimethylphenyl)-N-(4-phenylthiazol-2-yl)acetamide]",,6.00 to 7.00
"Cc1cc(C)cc(N(C(=O)CCl)c2nc(-c3cccc(Br)c3)cs2)c1 [Compound B12, N-[4-(3-bromophenyl)thiazol-2-yl]-2-chloro-N-(3,5-dimethylphenyl)acetamide]",,6.00 to 7.00
"C#CC(=O)N(c1cc(C)cc(C)c1)c1nc(-c2ccc(Br)cc2)cs1 [Compound B13, N-[4-(4-bromophenyl)thiazol-2-yl]-N-(3,5-dimethylphenyl)prop-2-ynamide]",,7.00 to 8.00
"O=C(CCl)N(Cc1ccccc1)c1nc(-c2ccc(Br)cc2)cs1 [Compound B14, N-benzyl-N-[4-(4-bromophenyl)thiazol-2-yl]-2-chloro-acetamide]",,5.00 to 6.00
"O=C(CCl)N(c1ccccc1)c1nc(-c2ccc(Br)cc2)cs1 [Compound B15, N-[4-(4-bromophenyl)thiazol-2-yl]-2-chloro-N-phenyl-acetamide]",,< 5.00
"Cc1cccc(N(C(=O)CCl)c2nc(-c3ccc(Br)cc3)cs2)c1 [Compound B16, N-[4-(4-bromophenyl)thiazol-2-yl]-2-chloro-N-(m-tolyl)acetamide]",,< 5.00
